Reference: ChEMBL document CHEMBL3739415, “Synthesis of functionalized new conjugates of batracylin with tuftsin/retro-tuftsin derivatives and their biological evaluation” (Eur J Med Chem, 2015)
The source made the active and inactive calls. No cut-off for these calls is given here. Non-standard residues stand in square brackets, D forms with d. Residues, ends and D or L forms follow the SMILES beside them. *: point of attachment. Batracylin(8-NH) = O=C1c2ccccc2C2=Nc3ccc(N*)cc3CN12; Arg(NO2) = N=C(NCCC[C@H](N)C(=O)O)N[N+](=O)[O-]

Tests used:
[1] = Cytotoxicity against human HL60 cells after 120 hrs by MTT assay; format: functional, cell-based; details: HL-60, 120 h
A549 [2] = assay: Cytotoxicity against human A549 cells after 120 hrs by MTT assay; format: functional, cell-based; details: A549, 120 h
[3] = biological target: T1, DNA topoisomerase 1 (Homo sapiens) (UniProt P11387); assay: Inhibition of human topoisomerase-1-mediated relaxation of supercoiled plasmid pBR322 DNA at 1 to 100 uM after 30 mins by ethidium bromide staining
T1 sequence (whole entry): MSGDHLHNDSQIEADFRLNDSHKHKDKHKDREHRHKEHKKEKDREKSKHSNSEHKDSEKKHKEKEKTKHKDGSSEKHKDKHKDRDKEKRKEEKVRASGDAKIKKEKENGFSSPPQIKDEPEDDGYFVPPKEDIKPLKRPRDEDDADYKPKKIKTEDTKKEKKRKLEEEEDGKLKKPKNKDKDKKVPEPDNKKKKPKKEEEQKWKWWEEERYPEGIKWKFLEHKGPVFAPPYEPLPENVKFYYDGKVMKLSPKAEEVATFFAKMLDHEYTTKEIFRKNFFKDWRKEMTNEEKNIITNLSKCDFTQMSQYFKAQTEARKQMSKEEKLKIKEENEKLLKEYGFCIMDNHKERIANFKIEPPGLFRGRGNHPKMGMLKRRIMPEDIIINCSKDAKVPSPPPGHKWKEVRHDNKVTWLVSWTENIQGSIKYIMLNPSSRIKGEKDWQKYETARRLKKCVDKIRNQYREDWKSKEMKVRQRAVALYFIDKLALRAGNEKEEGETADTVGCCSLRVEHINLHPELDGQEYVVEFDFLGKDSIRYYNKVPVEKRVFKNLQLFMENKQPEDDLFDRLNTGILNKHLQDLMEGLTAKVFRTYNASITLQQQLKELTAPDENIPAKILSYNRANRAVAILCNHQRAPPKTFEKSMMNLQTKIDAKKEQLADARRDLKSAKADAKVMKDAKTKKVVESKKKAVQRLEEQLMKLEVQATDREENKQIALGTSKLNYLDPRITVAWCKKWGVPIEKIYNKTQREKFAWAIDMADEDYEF

A549 [4] = assay: Ratio of BAT IC50 to compound IC50 for human A549 cells after 120 hrs by MTT assay; format: functional
HL-60 [5] = assay: Ratio of BAT IC50 to compound IC50 for human HL60 cells after 120 hrs by MTT assay; format: functional
[6] = biological target: DNA topoisomerase 2-alpha (Homo sapiens) (UniProt P11388); assay: Inhibition of human topoisomerase-2alpha-mediated relaxation of supercoiled plasmid pBR322 DNA after 30 mins by ethidium bromide staining
HL-60 [7] = assay: Induction of apoptosis in human HL60 cells assessed as fraction of polyploid cells at IC90 up to 120 hrs using Hoechst-33342 staining by fluorescent microscope analysis relative to BAT; format: functional, cell-based
[8] = Cell cycle arrest in human HL60 cells assessed as accumulation at G2/M phase at IC90 after 24 to 120 hrs using propidium iodide staining by flow cytometry analysis; format: functional, cell-based; details: HL-60
HL-60 [9] = assay: Induction of apoptosis in human HL60 cells assessed as micronucleated cells at IC90 up to 120 hrs using Hoechst-33342 staining by fluorescent microscope analysis relative to BAT; format: functional, cell-based
A549 [10] = assay: Induction of DNA damage in human A549 cells assessed as phosphorylation of H2AX histone at IC90 after 3 hrs by fluorescence microscopy; format: functional, cell-based
A549 [11] = assay: Induction of apoptosis in human A549 cells assessed as change in nuclear and cellular morphology at IC90 up to 120 hrs using Hoechst-33342 staining by fluorescent microscope analysis; format: functional, cell-based
[12] = Cell cycle arrest in human HL60 cells assessed as abnormal mitotic figures at IC90 after 24 to 120 hrs using propidium iodide staining by flow cytometry analysis; format: functional, cell-based; details: HL-60
A549 [13] = assay: Cell cycle arrest in human A549 cells assessed as accumulation at G2/M phase at IC90 after 120 hrs using propidium iodide staining by flow cytometry analysis; format: functional, cell-based
A549 [14] = assay: Induction of apoptosis in human A549 cells assessed as increase of debris fraction at IC90 up to 120 hrs using Hoechst-33342 staining by fluorescent microscope analysis relative to BAT; format: functional
HL-60 [15] = assay: Induction of apoptosis in human HL60 cells assessed as increase of debris fraction at IC90 up to 120 hrs using Hoechst-33342 staining by fluorescent microscope analysis relative to BAT; format: functional, cell-based
A549 [16] = assay: Cell cycle arrest in human A549 cells assessed as accumulation at G2/M phase at IC90 after 24 hrs using propidium iodide staining by flow cytometry analysis; format: functional, cell-based
[17] = Cytotoxicity against human HCT116 cells after 120 hrs by MTT assay; format: functional, cell-based; details: HCT-116, 120 h
[18] = Cytotoxicity against mouse WEHI1640 cells after 120 hrs by MTT assay; format: functional, cell-based; details: WEHI1640, 120 h
[19] = Cytotoxicity against mouse NIH/3T3 cells after 120 hrs by MTT assay; format: functional, cell-based; details: NIH3T3, 120 h
HT-29 = assay: Cytotoxicity against human HT-29 cells after 120 hrs by MTT assay; format: functional, cell-based; details: HT-29, 120 h
L1210 = assay: Cytotoxicity against mouse L1210 cells after 120 hrs by MTT assay; format: functional, cell-based; details: L1210, 120 h
MCF7 = assay: Cytotoxicity against human MCF7 cells after 120 hrs by MTT assay; format: functional, cell-based; details: MCF7, 120 h
P388 = assay: Cytotoxicity against mouse P388 cells after 120 hrs by MTT assay; format: functional, cell-based; details: P388, 120 h
LNCaP = assay: Cytotoxicity against human LNCAP cells after 120 hrs by MTT assay; format: functional, cell-based

DNA topoisomerase 2-alpha (Homo sapiens), sequence (P11388 whole entry): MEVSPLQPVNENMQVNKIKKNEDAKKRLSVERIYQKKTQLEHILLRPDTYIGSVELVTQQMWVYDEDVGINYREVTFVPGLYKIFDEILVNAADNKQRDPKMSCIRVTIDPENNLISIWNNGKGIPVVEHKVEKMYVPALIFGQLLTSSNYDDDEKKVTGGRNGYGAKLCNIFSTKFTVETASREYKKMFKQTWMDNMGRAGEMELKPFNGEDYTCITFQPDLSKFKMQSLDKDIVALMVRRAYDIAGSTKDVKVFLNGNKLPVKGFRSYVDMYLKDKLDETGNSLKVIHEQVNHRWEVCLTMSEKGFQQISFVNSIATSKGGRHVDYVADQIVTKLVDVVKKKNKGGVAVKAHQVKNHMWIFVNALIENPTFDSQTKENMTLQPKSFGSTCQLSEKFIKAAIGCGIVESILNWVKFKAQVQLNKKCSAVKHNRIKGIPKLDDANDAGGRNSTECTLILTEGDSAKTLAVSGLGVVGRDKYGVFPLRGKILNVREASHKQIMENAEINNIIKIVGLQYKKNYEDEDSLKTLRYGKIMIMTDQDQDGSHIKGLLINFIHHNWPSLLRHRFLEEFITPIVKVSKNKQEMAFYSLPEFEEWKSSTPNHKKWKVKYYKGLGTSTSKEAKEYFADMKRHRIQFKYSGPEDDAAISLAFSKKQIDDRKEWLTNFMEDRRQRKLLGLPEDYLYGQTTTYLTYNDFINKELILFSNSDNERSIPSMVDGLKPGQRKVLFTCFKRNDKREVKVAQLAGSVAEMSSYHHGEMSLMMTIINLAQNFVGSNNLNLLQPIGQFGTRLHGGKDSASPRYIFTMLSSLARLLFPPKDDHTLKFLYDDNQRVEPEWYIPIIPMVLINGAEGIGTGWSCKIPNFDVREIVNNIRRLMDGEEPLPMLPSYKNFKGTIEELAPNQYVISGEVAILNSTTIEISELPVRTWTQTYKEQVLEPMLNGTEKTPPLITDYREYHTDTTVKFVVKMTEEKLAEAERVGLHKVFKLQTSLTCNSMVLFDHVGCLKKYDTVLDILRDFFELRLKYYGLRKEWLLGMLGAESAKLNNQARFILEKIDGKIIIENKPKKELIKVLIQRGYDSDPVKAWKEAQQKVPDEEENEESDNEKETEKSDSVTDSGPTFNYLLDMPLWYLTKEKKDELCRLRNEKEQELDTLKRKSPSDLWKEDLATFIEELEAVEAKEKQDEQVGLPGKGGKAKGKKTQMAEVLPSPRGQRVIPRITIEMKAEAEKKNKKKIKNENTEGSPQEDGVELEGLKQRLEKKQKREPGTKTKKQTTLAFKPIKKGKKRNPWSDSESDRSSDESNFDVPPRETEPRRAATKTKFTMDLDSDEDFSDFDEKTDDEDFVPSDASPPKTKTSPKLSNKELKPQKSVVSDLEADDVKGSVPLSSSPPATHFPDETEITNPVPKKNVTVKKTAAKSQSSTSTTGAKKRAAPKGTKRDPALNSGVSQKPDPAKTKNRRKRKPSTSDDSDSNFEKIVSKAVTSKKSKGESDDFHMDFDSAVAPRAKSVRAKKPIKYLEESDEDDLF

SMILES: C[C@@H](O)[C@H](N)C(=O)N[C@@H](CCCCNC(=O)CN)C(=O)N1CCC[C@H]1C(=O)N[C@@H](CCCNC(=N)N[N+](=O)[O-])C(=O)Nc1ccc2c(c1)CN1C(=O)c3ccccc3C1=N2 (H-TK(Gly)P[Arg(NO2)]-{Batracylin(8-NH)})
- IC50 [1]: > 100 µM
- IC50 (A549 [2]): > 100 µM

SMILES: CC(C)[C@H](N)C(=O)NCCCC[C@H](NC(=O)[C@@H](N)[C@@H](C)O)C(=O)N1CCC[C@H]1C(=O)N[C@@H](CCCNC(=N)N[N+](=O)[O-])C(=O)Nc1ccc2c(c1)CN1C(=O)c3ccccc3C1=N2 (H-TK(Val)P[Arg(NO2)]-{Batracylin(8-NH)})
- IC50 [1]: > 100 µM
- IC50 (A549 [2]): > 100 µM

SMILES: C[C@H](N)C(=O)NCCCC[C@H](NC(=O)[C@@H]1CCCN1C(=O)[C@@H](N)CCCNC(=N)N[N+](=O)[O-])C(=O)N[C@H](C(=O)Nc1ccc2c(c1)CN1C(=O)c3ccccc3C1=N2)[C@@H](C)O (H-[Arg(NO2)]PK(Ala)T-{Batracylin(8-NH)})
- IC50 [1]: 11.1 µM
- IC50 (A549 [2]): 5.6 µM

SMILES: CC[C@H](C)[C@H](N)C(=O)NCCCC[C@H](NC(=O)[C@@H]1CCCN1C(=O)[C@@H](N)CCCNC(=N)N[N+](=O)[O-])C(=O)N[C@H](C(=O)Nc1ccc2c(c1)CN1C(=O)c3ccccc3C1=N2)[C@@H](C)O (H-[Arg(NO2)]PK(Ile)T-{Batracylin(8-NH)})
- IC50 [1]: 4.7 µM
- inhibition [3]: inactive
- IC50 (A549 [2]): 4.8 µM
- Ratio IC50 (A549 [4]): >=10
- Ratio IC50 (HL-60 [5]): >=10
- inhibition [6]: Dose-dependent effect

SMILES: C[C@@H](O)[C@H](N)C(=O)N[C@@H](CCCCN)C(=O)N1CCC[C@H]1C(=O)N[C@@H](CCCNC(=N)N[N+](=O)[O-])C(=O)Nc1ccc2c(c1)CN1C(=O)c3ccccc3C1=N2 (H-TKP[Arg(NO2)]-{Batracylin(8-NH)})
- Activity (HL-60 [7]): Active
- Activity [8]: inactive
- Activity (HL-60 [9]): Active
- Activity (A549 [10]): Active
- IC50 [1]: 77.3 µM
- Activity (A549 [11]): inactive
- Activity [12]: Active
- Activity (A549 [13]): Active
- IC50 (A549 [2]): 52.8 µM
- fold change (FC) (A549 [14]): 3.5
- Activity (HL-60 [15]): Active
- Activity (A549 [16]): Active

SMILES: C[C@@H](O)[C@H](NC(=O)[C@H](CCCCN)NC(=O)[C@@H]1CCCN1C(=O)[C@@H](N)CCCNC(=N)N[N+](=O)[O-])C(=O)Nc1ccc2c(c1)CN1C(=O)c3ccccc3C1=N2 (H-[Arg(NO2)]PKT-{Batracylin(8-NH)})
- IC50 [1]: 30.8 µM
- IC50 (A549 [2]): 8.7 µM
- Ratio IC50 (A549 [4]): 5
- Ratio IC50 (HL-60 [5]): 2

SMILES: C[C@H](N)C(=O)NCCCC[C@H](NC(=O)[C@@H](N)[C@@H](C)O)C(=O)N1CCC[C@H]1C(=O)N[C@@H](CCCNC(=N)N[N+](=O)[O-])C(=O)Nc1ccc2c(c1)CN1C(=O)c3ccccc3C1=N2 (H-TK(Ala)P[Arg(NO2)]-{Batracylin(8-NH)})
- IC50 [1]: 19.6 µM
- IC50 (A549 [2]): 5.9 µM

SMILES: CC(C)C[C@H](N)C(=O)NCCCC[C@H](NC(=O)[C@@H]1CCCN1C(=O)[C@@H](N)CCCNC(=N)N[N+](=O)[O-])C(=O)N[C@H](C(=O)Nc1ccc2c(c1)CN1C(=O)c3ccccc3C1=N2)[C@@H](C)O (H-[Arg(NO2)]PK(Leu)T-{Batracylin(8-NH)})
- Activity (HL-60 [7]): Active
- Activity [8]: inactive
- Activity (HL-60 [9]): Active
- Activity (A549 [10]): Active
- IC50 [1]: 5.3 µM
- Activity (A549 [11]): inactive
- Activity [12]: Active
- Activity (A549 [13]): Active
- inhibition [3]: inactive
- IC50 (A549 [2]): 4 µM
- Ratio IC50 (A549 [4]): >=10
- Activity (HL-60 [15]): Active
- Ratio IC50 (HL-60 [5]): >=10
- Activity (A549 [16]): Active
- inhibition [6]: Dose-dependent effect

SMILES: CC[C@H](C)[C@H](N)C(=O)NCCCC[C@H](NC(=O)[C@@H](N)[C@@H](C)O)C(=O)N1CCC[C@H]1C(=O)N[C@@H](CCCNC(=N)N[N+](=O)[O-])C(=O)Nc1ccc2c(c1)CN1C(=O)c3ccccc3C1=N2 (H-TK(Ile)P[Arg(NO2)]-{Batracylin(8-NH)})
- IC50 [1]: 15.4 µM
- inhibition [3]: inactive
- IC50 (A549 [2]): 17.4 µM
- inhibition [6]: Dose-dependent effect

SMILES: C[C@@H](O)[C@H](NC(=O)[C@H](CCCCNC(=O)CN)NC(=O)[C@@H]1CCCN1C(=O)[C@@H](N)CCCNC(=N)N[N+](=O)[O-])C(=O)Nc1ccc2c(c1)CN1C(=O)c3ccccc3C1=N2 (H-[Arg(NO2)]PK(Gly)T-{Batracylin(8-NH)})
- IC50 [1]: 28.7 µM
- IC50 (A549 [2]): > 100 µM

SMILES: CC(C)C[C@H](N)C(=O)NCCCC[C@H](NC(=O)[C@@H](N)[C@@H](C)O)C(=O)N1CCC[C@H]1C(=O)N[C@@H](CCCNC(=N)N[N+](=O)[O-])C(=O)Nc1ccc2c(c1)CN1C(=O)c3ccccc3C1=N2 (H-TK(Leu)P[Arg(NO2)]-{Batracylin(8-NH)})
- IC50 [1]: 83.7 µM
- inhibition [3]: inactive
- IC50 (A549 [2]): > 100 µM
- inhibition [6]: Dose-dependent effect

SMILES: CC(C)[C@H](N)C(=O)NCCCC[C@H](NC(=O)[C@@H]1CCCN1C(=O)[C@@H](N)CCCNC(=N)N[N+](=O)[O-])C(=O)N[C@H](C(=O)Nc1ccc2c(c1)CN1C(=O)c3ccccc3C1=N2)[C@@H](C)O (H-[Arg(NO2)]PK(Val)T-{Batracylin(8-NH)})
- IC50 [1]: 11 µM
- IC50 (A549 [2]): 13.1 µM

SMILES: Nc1ccc2c(c1)CN1C(=O)c3ccccc3C1=N2 [DANIQUIDONE]
- Activity (HL-60 [7]): Active
- Activity [8]: inactive
- Activity (HL-60 [9]): Active
- Activity (A549 [10]): Active
- IC50 [17]: 88.7 µM
- IC50 [18]: 58.4 µM
- IC50 [19]: 69.9 µM
- IC50 (HT-29): 64.3 µM
- IC50 [1]: 66.6 µM
- Activity (A549 [11]): inactive
- Activity [12]: Active
- Activity (A549 [13]): Active
- IC50 (L1210): > 100 µM
- inhibition [3]: inactive
- IC50 (A549 [2]): 46.3 µM
- Activity (HL-60 [15]): Active
- IC50 (MCF7): > 100 µM
- IC50 (P388): > 100 µM
- Activity (A549 [16]): Active
- inhibition [6]: Dose-dependent effect
- IC50 (LNCaP): 90.2 µM
